Structures are written as SMILES. Read-outs that look alike come from different tables or passages of the source.

The test system of data set [1] is BMP-6/ALK2/Hepcidin pathway. In words: ALK2 off-target assay, hepcidin mRNA in HepG2 hepatocytes. It is filed as cell-based, human. As to conditions: HepG2, 40 ng/ml BMP-6, 3 h; read-out: IC50, hepcidin mRNA expression. The protocol: In this study, LDN214117 (an ALK2 inhibitor available from Selleck Chemicals S7627) was included as a positive control, and vactosertib (an ALK5 inhibitor available from MedChem Express HY-19928) was included as a negative control.
HepG2 human hepatocytes (ATCC HB-8065) were seeded in EMEM (ATCC30-2003)+10% FBS in 96-well plate and allowed to grow overnight at 5% CO2 at 37° C. The next day, cells were pre-treated with selected compounds (Compound 01, 04 or 05) or one of the control compounds at various concentrations, or with vehicle (DMSO) for one hour. Cells were then stimulated with recombinant human BMP-6 (R&D Systems 507-BP-020) at a final concentration of 40 ng/ml, in the presence of test compound or DMSO for three hours. A no-BMP-6 stimulation condition was included for baseline hepcidin level measurement.
Hepcidin mRNA expression was measured by real-time RT-PCR with Cells-to-CT 1-Step TaqMan Kit (ThermoFisher A25603) following manufacturer's instructions. GAPDH levels were measured, and served as a normalization control. Hepcidin primer: TaqMan HAMP-FAM/MGB 20×(ThermoFisher 4331182); GAPDH primer: TaqMan GAPDH-VIC/MGB 20×(ThermoFisher 4326317E). Delta-delta Ct method was used to obtain relative Hepcidin expression.
The selected compounds and control compounds LDN214117 and vactosertib were tested at drug concentrations of 20 micromolar to 1.22 nanomolar at 4-fold serial dilution. All wells contained the same DMSO concentrations. IC50 values were calculated using nonlinear regression model with GraphPad Prism software. The results of the ALK-2 off-target assay are reported in Table 3B, where “++” indicates 0.1 μM<IC50≤1 μM and “+++” indicates […].

The subject of data set [2] is TGF-β1-mediated αSMA expression. Particulars: human, 73 h.
Experimental: (§4) To test the ability of selected compounds to inhibit the TGF-β1-dependent transition of fibroblasts to myofibroblasts in a relevant disease model of IPF, an FMT assay was performed using lung fibroblasts from IPF patients. In this assay, the transition of fibroblasts to myofibroblasts is determined by the expression of the biomarker alpha smooth muscle actin (α-SMA).
(§5) Primary human bronchial fibroblasts derived from IPF patients were seeded on day zero and the media was refreshed on day two. On day five, selected compounds or controls were added at an eight-point concentration response curve starting at 10 μM (semi-log dilutions). Each drug concentration condition was evaluated in biological duplicates. […] Seventy-two hours following TGF-beta addition, the cells were fixed with formaldehyde. High content imaging evaluating cell number using the nuclear stain DAPI as well as the expression of a-SMA was performed. The following controls were run alongside the selected compounds: vactosertib and the approved IPF drug nintedanib (at an eight-point, semi-log curve with 10 μM starting concentration). As a negative control 0.1% DMSO was also used, matching the DMSO concentration in treated wells. The following calculations were used to determine cell number as well as percent inhibition (PIN) of alpha SMA expression:
(§6) • Segmentation and quantification of αSMA immunoreactivity by an HCA algorithm, with density×area (D×A) output • Data normalization of raw αSMA (D×A) to percentage inhibition (PIN) values, on a plate-to-plate basis
(§7) • DAPI fluorescence applied for HCA-based quantification of the number of imaged cells, on a plate-to-plate basis
(§8) [formula] • μn is the average numbers of nuclei of the vehicle control (TGF-β1+0.1% DMSO) • Xi is the compound number of nuclei
The test system is the same in data set [3]. In words: Fibroblast to myofibroblast transformation (FMT) assay. Particulars: for IC50: Homo sapiens, Fibroblast.
Experimental: as §4, §5, §6, §7, §8
Data set [4] deals with phospho-SMAD-2 (Ser465/Ser467). As to the kind of experiment: A549 xenograft assay, p-SMAD2. Type of data set: in vivo, mice. Particulars: 75 mg/kg per oral gavage, tumors 4 h after dosing. The source says:
(§1) To test compounds for inhibition of in vivo on-target activity (ALK5/TGF-bR1 inhibition) as well as potential Janus Kinase (JAK) signaling off-target activity, the A549 murine xenograft model was utilized. An ALK5 inhibitor (e.g., vactosertib) is expected to reduce the amount of the TGF-beta signaling molecule phospho-SMAD-2 (pSMAD2) in the A549 xenograft cells. The TGF-beta-mediated phosphorylation of SMAD2 in A549 cells takes place at amino acid residue four hundred and sixty-five and four hundred and sixty-seven (both are serine residues). A JAK inhibitor (e.g., ruxolitinib) is expected to reduce the phosphorylation of signal transducer and activator of transcription (STAT) proteins such as STAT3 at amino acid residue 705 (tyrosine).
(§2) At eight weeks of age, female athymic nude mice (purchased from Charles River) were injected with approximately 3.5 million A549 cells (ATCC, CCL-185). Specifically, cells were harvested and resuspended in plain RPMI media (no phenol red added) and Matrigel (Corning 356237) at a one to one ratio, and two hundred-microliters were injected into the right hind flank of each mouse. Tumors were measured every three days by caliper and as tumors reached an average of seventy-eighty millimeters cubed, mice were randomized in groups of three. All compounds were resuspended in 1-methyl-2-pyrrolidinone (Sigma 494496) (10%) plus 20% Solutol (Sigma 42966) in water (90%). Vactosertib and ruxolitinib were included as controls as ALK5 signaling inhibitor and JAK signaling inhibitor, respectively. Both controls were given at seventy-five milligrams per kilogram to three mice. The drug suspensions were sonicated for fifteen minutes to generate a fine particle suspension before being given to the mice. Mice were dosed (per oral gavage) with drug at one hundred, seventy-five, fifty, or ten milligrams per kilogram, with three mice per group. A vehicle control group with three mice was used to establish the baseline level of phospho-SMAD-2 in the tumor xenograft.
(§3) Four hours after drug administration, tumors were harvested, snap frozen and stored at negative eighty degrees Celsius until further processing. The phospho-SMAD-2 levels were determined using the Bio-Plex Pro™ Phospho-Smad2 (Ser465/Ser467) Set (BioRad 171V50019M). The phospho STAT3 levels were determined using the bead/antibody set from the MILLIPLEXMAP STAT Cell Signaling Magnetic Bead 5-Plex Kit (Millipore 48-610MAG). Both phospho SMAD-2 levels and phospho STAT3 levels were normalized to ß-Tubulin (MILLIPLEX MAP ß-Tubulin Total Magnetic Bead MAPmate™, Millipore 46-713MAG) or GAPDH (MILLIPLEX MAP GAPDH Total Magnetic Bead MAPmate™, Millipore 46-667MAG) levels from each sample. All analytes were analyzed in a multiplex fashion with the Bio-Plex Pro Cell Signaling Reagent Kit (BioRad 171304006M). Briefly, frozen tumor (fifteen to thirty milligrams) was lysed in 100 μl lysis buffer, processed in bead mill tube, and centrifuged. The resulting lysate was used at 1:50 dilution for the assay according to the manufacturer's instructions. Bead suspension was analyzed using the Luminex system (MAGPIX).

In data set [5] the test system is p-STAT3 (Tyr 705). In words: A549 xenograft assay, p-STAT3. It is filed as in vivo, mice.
Source text: as §1, §2, §3

Data set [6] has as its system JAK signaling. As to the kind of experiment: JAK selectivity assay, HEK blue IL-12 reporter. It is filed as cell-based. As to conditions: 12.5 ng/ml IL-12, 24 h. The protocol:
The cells were purchased from Invivogen (Catalog Nr: hkb-il12) and maintained according to vendor instructions. On the day of the experiment, cells were harvested by repeated tapping of the flask to shake loose the cells attached to the bottom of the flask. Then, cells were harvested, washed and resuspended in DMEM media supplemented with 10% fetal calf serum. 30 Microliters of cell suspension was seeded into a 384-well tissue culture-coated plate containing approximately 10,000 total cells. […] Using the ECHO “Dose Response” software, the test compound was added in duplicate wells with a 3-fold dilution curve. DMSO was back-filled to normalize the DMSO across all wells. […] After 30 minutes of incubation at room temperature, the optical density was measured at 620 nanometer using the Perkin Elmer Envision plate reader. A color change can be detected at this wavelength when secreted alkaline phosphatase, which is triggered by IL-12 signaling, is present in the supernatant. […]

For `COc1cc(-c2cc(-c3ccc(N4CCNCC4)cc3)cnc2C)cc(OC)c1OC` [LDN214117, reference compound], in data set [1], the IC50 was in the range of 100 to 1000 nM.

In data set [2], `COC(=O)c1ccc2c(c1)NC(=O)/C2=C(\Nc1ccc(N(C)C(=O)CN2CCN(C)CC2)cc1)c1ccccc1` [Nintedanib, nintedanib, reference compound] registered a Potentially toxic concentration of 5.0. The IC50 is 833 nM in data set [3] (read-out: Average IC50 (nM), average of donors IPF03, IPF06, IPF08); 600 nM in data set [3] (read-out: IC50 αSMA, donor IPF03); 1500 nM in data set [3] (read-out: IC50 αSMA, donor IPF06); 400 nM in data set [3] (read-out: IC50 αSMA, donor IPF08); 631 nM in data set [3] (read-out: pIC50 αSMA, donor IPF03 (converted)); 1580 nM in data set [3] (read-out: pIC50 αSMA, donor IPF06 (converted)). For the same molecule, the IC50 in data set [3] (read-out: pIC50 αSMA, donor IPF08 (converted)) was 398 nM. The “Max PIN (%)” value in data set [3] (donor IPF03) is 90%; in data set [3] (donor IPF06) it was 104%; in data set [3] (donor IPF08), 94%.

Regarding `N#CC[C@H](C1CCCC1)n1cc(-c2ncnc3[nH]ccc23)cn1` [Ruxolitinib, ruxolitinib, reference compound], the “Average % p-SMAD2 (Ser 465/467) of vehicle” value in data set [4] stood at 120%. Besides, the “Average % p-STAT3 (Tyr 705) of vehicle” value in data set [5] (75 mg/kg per oral gavage, tumors 4 h after dosing) was 10%. Moreover, in data set [5] (75 milligrams per kilogram), the “inhibition of the phosphorylation of STAT3 in tumor samples” value is given as 90%. The same molecule came in with an IC50 in data set [6] of 31 nM.

The record behind these values is patent publication US20240197729A1, “ALK-5 Inhibitors and Uses Thereof” (Sumitomo Pharma Oncology, Inc., priority 2021, published 2024).
